Results on five compounds are retold here after patent US20210221866A1, “PROTEASE-RESISTANT LIPIDATED GLP-1 ANALOGS” (MEDIMMUNE LIMITED, priority 2015, published 2021).

Each structure is given as a SMILES string. Read-outs that look alike come from different tables or passages of the source. Numbered stars: 1 amine (or outer) side, 2 acyl side, 3 side chain; on linkers, the order of the positions; unused ones are H or OH. Square brackets hold non-standard residues; d marks the D form. Side chains are listed from the residue outwards. Peptide text beside a SMILES is read from it. * marks the point of attachment. C18 diacid = O=C(O)CCCCCCCCCCCCCCCCC(=O)*; γGlu = O=C(O)[C@H](CCC(=O)[*:2])N[*:1]; αMeF = C[C@](N)(Cc1ccccc1)C(=O)O; αMeK = C[C@](N)(CCCCN)C(=O)O; αMeS = C[C@](N)(CO)C(=O)O; AEEA = NCCOCCOCC(=O)O; Aib = CC(C)(N)C(=O)O Bounds are passed on as bounds.

Common to all, as to assay type: cell-based
Test [1] has as its target T1, human glucose-dependent insulinotropic peptide receptor (GIPR) (Homo sapiens, UniProt P48546).
T1 construct: expressed in transfected cells; host or cells: HEK293 cells or CHO cells
T1 sequence (P48546 22-466): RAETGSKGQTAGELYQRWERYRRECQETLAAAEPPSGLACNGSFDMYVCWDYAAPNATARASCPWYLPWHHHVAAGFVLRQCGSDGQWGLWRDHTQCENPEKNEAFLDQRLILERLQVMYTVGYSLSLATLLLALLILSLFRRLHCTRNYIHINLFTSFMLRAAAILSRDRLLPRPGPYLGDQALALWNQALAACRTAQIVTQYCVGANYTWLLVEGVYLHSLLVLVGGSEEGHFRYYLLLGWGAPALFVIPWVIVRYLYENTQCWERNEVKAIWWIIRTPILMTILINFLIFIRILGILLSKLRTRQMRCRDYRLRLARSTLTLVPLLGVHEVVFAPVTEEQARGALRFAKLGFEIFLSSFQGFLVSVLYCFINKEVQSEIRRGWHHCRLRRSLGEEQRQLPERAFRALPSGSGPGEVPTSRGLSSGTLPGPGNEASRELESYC
Nature of the test: cAMP assay, human GIPR cells. Particulars: cAMP activity, read-out: Primary assay EC50 GIP-R. An outline of the steps: (§1)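 Peptide-stimulated cAMP measured by two-step HTRF after a 30 min room-temperature incubation with receptor-expressing cells (hGLP-1R, hGIPR at 1×10^5 cells/ml; hGCGR at 2×10^5 cells/ml). Duplicate dilutions; EC50 from 4-parameter logistic fit of % Delta F.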

Test [2] deals with T2, human glucagon receptor (GCGR) (Homo sapiens, UniProt P47871).
T2 construct: expressed in transfected cells; host or cells: HEK293 cells or CHO cells
Description: cAMP assay, human GCGR cells. Particulars: cAMP activity; second determination (n2); read-out: Primary assay EC50 Gluc-R. An outline of the steps:
as §1

The target in test [3] is T3, human GLP-1 receptor (GLP-1R) (Homo sapiens, UniProt P43220).
T3 construct: expressed in transfected cells; host or cells: HEK293 cells or CHO cells
Nature of the test: cAMP assay, human GLP-1R cells. Particulars: cAMP activity. An outline of the steps:
as §1

Another test concerns the target T4, GLP-1R (INS1e cells) (Rattus norvegicus, UniProt P32301).
T4 construct: endogenous in cells; host or cells: INS1e cells
T4 sequence (P32301 22-463): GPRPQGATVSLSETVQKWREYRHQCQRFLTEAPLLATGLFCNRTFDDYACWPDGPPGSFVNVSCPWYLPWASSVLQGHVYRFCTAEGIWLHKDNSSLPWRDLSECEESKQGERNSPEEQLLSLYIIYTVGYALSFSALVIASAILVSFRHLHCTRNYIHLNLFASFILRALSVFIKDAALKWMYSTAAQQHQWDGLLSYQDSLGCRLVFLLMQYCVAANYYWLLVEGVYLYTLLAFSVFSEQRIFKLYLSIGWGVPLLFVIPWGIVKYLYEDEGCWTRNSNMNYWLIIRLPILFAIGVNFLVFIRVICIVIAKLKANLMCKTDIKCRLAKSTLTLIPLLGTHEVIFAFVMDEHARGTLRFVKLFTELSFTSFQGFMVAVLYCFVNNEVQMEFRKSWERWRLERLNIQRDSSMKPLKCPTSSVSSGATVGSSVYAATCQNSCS
Nature of the test: INS1e assay, cAMP activity at GLP-1R. Particulars: Table 8, substituted and mono-lipidated peptides.

[4] abbreviates: first determination (n1), read-out: Primary assay EC50 GLP-1R n1.
Where [5] appears, read: mean of n1 and n2, read-out: Mean pM GLP-1R.
[6] abbreviates: second determination (n2), read-out: Primary assay EC50 GLP-1R n2.
The mark [7] stands for this setting: mean of n1 and n2, read-out: INS1e assay EC50 Mean pM GLP-1R.
[8] abbreviates: replicate n1, read-out: INS1e assay EC50 GLP-1R n1.
Where [9] appears, read: replicate n2, read-out: INS1e assay EC50 GLP-1R n2.

T2 sequence (P47871 26-477): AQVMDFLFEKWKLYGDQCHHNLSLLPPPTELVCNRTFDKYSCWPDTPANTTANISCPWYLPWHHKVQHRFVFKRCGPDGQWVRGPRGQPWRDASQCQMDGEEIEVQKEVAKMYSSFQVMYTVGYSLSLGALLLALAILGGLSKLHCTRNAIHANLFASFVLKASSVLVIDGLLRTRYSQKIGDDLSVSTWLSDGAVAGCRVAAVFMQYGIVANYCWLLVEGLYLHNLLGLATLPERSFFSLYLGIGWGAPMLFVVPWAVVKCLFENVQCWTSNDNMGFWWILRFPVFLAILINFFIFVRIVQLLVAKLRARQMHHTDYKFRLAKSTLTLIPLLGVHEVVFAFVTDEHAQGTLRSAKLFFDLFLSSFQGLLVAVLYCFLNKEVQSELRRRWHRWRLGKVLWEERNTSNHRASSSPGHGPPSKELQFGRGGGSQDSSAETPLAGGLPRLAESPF
T3 sequence (P43220 24-463): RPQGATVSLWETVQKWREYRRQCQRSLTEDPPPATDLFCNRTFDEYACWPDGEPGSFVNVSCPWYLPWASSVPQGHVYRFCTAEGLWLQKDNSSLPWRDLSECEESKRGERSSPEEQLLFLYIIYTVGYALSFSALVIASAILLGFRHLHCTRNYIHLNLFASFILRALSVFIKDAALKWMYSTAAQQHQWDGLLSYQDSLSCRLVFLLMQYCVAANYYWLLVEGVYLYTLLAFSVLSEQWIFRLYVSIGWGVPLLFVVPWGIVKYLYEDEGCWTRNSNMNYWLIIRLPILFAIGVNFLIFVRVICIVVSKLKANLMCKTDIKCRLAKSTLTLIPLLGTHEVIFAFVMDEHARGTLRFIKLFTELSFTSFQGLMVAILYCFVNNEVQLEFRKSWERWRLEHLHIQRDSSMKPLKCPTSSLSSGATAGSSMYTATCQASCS

Take `CC[C@H](C)[C@H](NC(=O)[C@](C)(Cc1ccccc1)NC(=O)[C@H](CCC(=O)O)NC(=O)[C@H](CCCCNC(=O)COCCOCCNC(=O)COCCOCCNC(=O)CC[C@H](NC(=O)CCCCCCCCCCCCCCCCC(=O)O)C(=O)O)NC(=O)[C@H](C)NC(=O)[C@H](C)NC(=O)[C@H](CCC(=O)O)NC(=O)CNC(=O)[C@H](CCC(=O)O)NC(=O)[C@H](CC(C)C)NC(=O)[C@](C)(Cc1ccccc1)NC(=O)[C@H](CO)NC(=O)[C@](C)(CO)NC(=O)[C@@H](NC(=O)[C@H](CC(=O)O)NC(=O)[C@H](CO)NC(=O)[C@@H](NC(=O)[C@](C)(Cc1ccccc1)NC(=O)[C@H](CO)NC(=O)CNC(=O)[C@H](CCC(=O)O)NC(=O)C(C)(C)NC(=O)[C@@H](N)Cc1c[nH]cn1)[C@@H](C)O)C(C)C)C(=O)N[C@@H](C)C(=O)N[C@@H](Cc1c[nH]c2ccccc12)C(=O)N[C@H](C(=O)N[C@H](C(=O)N[C@@](C)(CCCCN)C(=O)NCC(=O)NCC(N)=O)C(C)C)C(C)C` [compound 49] (H-H[Aib]EGS[αMeF]TSDV[αMeS]S[αMeF]LEGEAAK([AEEA-AEEA-γGlu-C18 diacid])E[αMeF]IAWVV[αMeK]GG-NH2; N-terminus assumed): the EC50 in test [1] (first determination (n1)) was ≥ 25 nM; in test [1] (second determination (n2)), ≥ 25 nM; in test [2], ≥ 25 nM; in test [3] (setting [4]), 96 pM; in test [3] (setting [5]), 124 pM; in test [3] (setting [6]), 150 pM. Further, the EC50 on GLP-1R (INS1e cells) (setting [7]) amounted to 10000 pM; at GLP-1R (INS1e cells) (setting [8]), 9350 pM; at GLP-1R (INS1e cells) (setting [9]), 10700 pM.
As for `CCCCCCCCCCCCCCCCCC(=O)NCCOCCOCC(=O)NCCOCCOCC(=O)NCCOCCOCC(=O)NCCCC[C@H](NC(=O)[C@H](C)NC(=O)[C@H](C)NC(=O)[C@H](CCC(=O)O)NC(=O)CNC(=O)[C@H](CCC(=O)O)NC(=O)[C@H](CC(C)C)NC(=O)[C@](C)(Cc1ccccc1)NC(=O)[C@H](CO)NC(=O)[C@](C)(CO)NC(=O)[C@@H](NC(=O)[C@H](CC(=O)O)NC(=O)[C@H](CO)NC(=O)[C@@H](NC(=O)[C@](C)(Cc1ccccc1)NC(=O)[C@H](CO)NC(=O)CNC(=O)[C@H](CCC(=O)O)NC(=O)C(C)(C)NC(=O)[C@@H](N)Cc1c[nH]cn1)[C@@H](C)O)C(C)C)C(=O)N[C@@H](CCC(=O)O)C(=O)N[C@@](C)(Cc1ccccc1)C(=O)N[C@H](C(=O)N[C@@H](C)C(=O)N[C@@](C)(Cc1ccccc1)C(=O)N[C@H](C(=O)N[C@H](C(=O)N[C@@H](CCCCN)C(=O)NCC(=O)NCC(N)=O)C(C)C)C(C)C)[C@@H](C)CC` [compound 56], the EC50 in test [1] (first determination (n1)) is ≥ 26 nM; in test [1] (second determination (n2)), ≥ 26 nM; in test [2], ≥ 26 nM; in test [3] (setting [4]) it was 2.9 pM; in test [3] (setting [5]), 3.2 pM; in test [3] (setting [6]) it was 3.5 pM. The EC50 at GLP-1R (INS1e cells) (setting [7]) was found to be 56 pM; on GLP-1R (INS1e cells) (setting [8]), 35.2 pM; at GLP-1R (INS1e cells) (setting [9]), 77 pM.
On to `CC[C@H](C)[C@H](NC(=O)[C@](C)(Cc1ccccc1)NC(=O)[C@H](CCC(=O)O)NC(=O)[C@](C)(CCCCN)NC(=O)[C@H](C)NC(=O)[C@H](C)NC(=O)[C@H](CCC(=O)O)NC(=O)CNC(=O)[C@H](CCC(=O)O)NC(=O)[C@H](CC(C)C)NC(=O)[C@](C)(Cc1ccccc1)NC(=O)[C@H](CO)NC(=O)[C@](C)(CO)NC(=O)[C@@H](NC(=O)[C@H](CC(=O)O)NC(=O)[C@H](CO)NC(=O)[C@@H](NC(=O)[C@](C)(Cc1ccccc1)NC(=O)[C@H](CO)NC(=O)CNC(=O)[C@H](CCC(=O)O)NC(=O)C(C)(C)NC(=O)[C@@H](N)Cc1c[nH]cn1)[C@@H](C)O)C(C)C)C(=O)N[C@@H](C)C(=O)N[C@@](C)(Cc1ccccc1)C(=O)N[C@H](C(=O)N[C@H](C(=O)N[C@@](C)(CCCCN)C(=O)NCC(=O)N[C@@H](CCCCNC(=O)COCCOCCNC(=O)COCCOCCNC(=O)CC[C@H](NC(=O)CCCCCCCCCCCCCCCCC(=O)O)C(=O)O)C(N)=O)C(C)C)C(C)C` [compound 99] (H-H[Aib]EGS[αMeF]TSDV[αMeS]S[αMeF]LEGEAA[αMeK]E[αMeF]IA[αMeF]VV[αMeK]GK([AEEA-AEEA-γGlu-C18 diacid])-NH2; N-terminus assumed), for which the EC50 is ≥ 25 nM in test [1] (first determination (n1)); ≥ 24.9 nM in test [1] (second determination (n2)); ≥ 24.9 nM in test [2]; 58 pM in test [3] (setting [4]); 54 pM in test [3] (setting [5]); 49.3 pM in test [3] (setting [6]). Moreover, the EC50 on GLP-1R (INS1e cells) (setting [7]) was 8440 pM; at GLP-1R (INS1e cells) (setting [8]), 11000 pM; on GLP-1R (INS1e cells) (setting [9]), 5880 pM.
Regarding `CC[C@H](C)[C@H](NC(=O)[C@](C)(Cc1ccccc1)NC(=O)[C@H](CCC(=O)O)NC(=O)[C@](C)(CCCCN)NC(=O)[C@H](C)NC(=O)[C@H](C)NC(=O)[C@H](CCC(=O)O)NC(=O)CNC(=O)[C@H](CCC(=O)O)NC(=O)[C@H](CC(C)C)NC(=O)[C@](C)(Cc1ccccc1)NC(=O)[C@H](CO)NC(=O)[C@](C)(CO)NC(=O)[C@@H](NC(=O)[C@H](CC(=O)O)NC(=O)[C@H](CO)NC(=O)[C@@H](NC(=O)[C@](C)(Cc1ccccc1)NC(=O)[C@H](CO)NC(=O)CNC(=O)[C@H](CCC(=O)O)NC(=O)C(C)(C)NC(=O)[C@@H](N)Cc1c[nH]cn1)[C@@H](C)O)C(C)C)C(=O)N[C@@H](C)C(=O)N[C@@](C)(Cc1ccccc1)C(=O)N[C@H](C(=O)N[C@@H](CCCCNC(=O)COCCOCCNC(=O)COCCOCCNC(=O)CC[C@H](NC(=O)CCCCCCCCCCCCCCCCC(=O)O)C(=O)O)C(=O)N[C@@](C)(CCCCN)C(=O)NCC(=O)NCC(N)=O)C(C)C` [compound 102] (H-H[Aib]EGS[αMeF]TSDV[αMeS]S[αMeF]LEGEAA[αMeK]E[αMeF]IA[αMeF]VK([AEEA-AEEA-γGlu-C18 diacid])[αMeK]GG-NH2), the EC50 in test [1] (first determination (n1)) is ≥ 25 nM; in test [1] (second determination (n2)), ≥ 25.2 nM; in test [2], ≥ 25.2 nM; in test [3] (setting [4]), 24 pM; in test [3] (setting [5]), 22 pM; in test [3] (setting [6]), 20.6 pM. The EC50 is 3560 pM on GLP-1R (INS1e cells) (setting [7]), 4220 pM on GLP-1R (INS1e cells) (setting [8]) and 2890 pM on GLP-1R (INS1e cells) (setting [9]).
Regarding `CC[C@H](C)[C@H](NC(=O)[C@](C)(Cc1ccccc1)NC(=O)[C@H](CCC(=O)O)NC(=O)[C@](C)(CCCCN)NC(=O)[C@H](C)NC(=O)[C@H](C)NC(=O)[C@H](CCC(=O)O)NC(=O)CNC(=O)[C@H](CCC(=O)O)NC(=O)[C@H](CC(C)C)NC(=O)[C@](C)(Cc1ccccc1)NC(=O)[C@H](CO)NC(=O)[C@](C)(CO)NC(=O)[C@@H](NC(=O)[C@H](CC(=O)O)NC(=O)[C@H](CO)NC(=O)[C@@H](NC(=O)[C@](C)(Cc1ccccc1)NC(=O)[C@H](CO)NC(=O)CNC(=O)[C@H](CCC(=O)O)NC(=O)C(C)(C)NC(=O)[C@@H](N)Cc1c[nH]cn1)[C@@H](C)O)C(C)C)C(=O)N[C@@H](C)C(=O)N[C@@](C)(Cc1ccccc1)C(=O)N[C@@H](CCCCNC(=O)COCCOCCNC(=O)COCCOCCNC(=O)CC[C@H](NC(=O)CCCCCCCCCCCCCCCCC(=O)O)C(=O)O)C(=O)N[C@H](C(=O)N[C@@](C)(CCCCN)C(=O)NCC(=O)NCC(N)=O)C(C)C` [compound 103] (H-H[Aib]EGS[αMeF]TSDV[αMeS]S[αMeF]LEGEAA[αMeK]E[αMeF]IA[αMeF]K([AEEA-AEEA-γGlu-C18 diacid])V[αMeK]GG-NH2), the EC50 was ≥ 25 nM in test [1] (first determination (n1)); ≥ 25.2 nM in test [1] (second determination (n2)); ≥ 25.2 nM in test [2]; 4.7 pM in test [3] (setting [4]); 5 pM in test [3] (setting [5]); 4.56 pM in test [3] (setting [6]). The results for the EC50 at GLP-1R (INS1e cells) (setting [7]), on GLP-1R (INS1e cells) (setting [8]) and on GLP-1R (INS1e cells) (setting [9]) were 509 pM, 428 pM and 590 pM, respectively.
